≈ marks a conversion by molar mass, not a printed value. Structures can show the parent of a compound that is named as a salt.
test: Solubility by HPLC relative to a reference sample; type: physicochemical; settings: aqueous buffer, phosphate buffer, at the pH given
Method: The evaluation of the solubility of the compounds of the invention is carried out at pH 4 (using a phosphate buffer, […]) by HPLC using an H2O/CH3CN/CH3SO3H gradient, relative to a reference sample (a dilute solution of the product to be evaluated which serves as an internal control). The solubility S results are expressed in mg/ml. Generally, the compounds of the present invention have a solubility S≧4 mg/ml at pH≧4. Among them, mention may be made of the solubilities of the following compounds in the table below: […]

Structure (SMILES)	solubility [µg/mL]
CCc1cc2cc(C(=O)N(CC)Cc3cc(C)on3)ccn2c1C(=O)c1ccc(CCCNC(C)(C)C)cc1 [compound 46, 3-[4-(3-tert-Butylaminopropyl)benzoyl]-2-ethylindolizine-7-carboxylic acid ethyl(5-methylisoxazol-3-ylmethyl)amide]	1730 (≈ 3.27 mM)
CCc1cc2cc(C(=O)N3CCNC(=O)CC3)ccn2c1C(=O)c1ccc(CCCNC2CCCC2)cc1 [compound 53, 1-{3-[4-(3-Cyclopentylaminopropyl)benzoyl]-2-ethylindolizine-7-carbonyl}[1,4]diazepam-5-one]	6930 (≈ 13.5 mM)

test: not given; settings: not given

Structure (SMILES)	melting point [°C]
CCN[C@@H](CCc1ccc(C(=O)c2c(CC)cc3cc(C(=O)N(CC)Cc4nnn(C)n4)ccn23)cc1)C(C)C (as salt: hydrochloride) [Compound No. 20, 2-Ethyl-3-[4-((S)-3-ethylamino-4-methylpentyl)benzoyl]indolizine-7-carboxylic acid ethyl(2-methyl-2H-tetrazol-5-ylmethyl)amide]	100
CCc1cc2cc(C(=O)N3CCNC(=O)C3)ccn2c1C(=O)c1ccc(CCCNC(C)(C)C)cc1 [compound 38, 4-{3-[4-(3-tert-Butylaminopropyl)benzoyl]-2-ethylindolizine-7-carbonyl}piperazin-2-one]	122
CCc1cc2cc(C(=O)N(CC)Cc3nnn(C)n3)ccn2c1C(=O)c1ccc(CCC(C)(C)NC(C)(C)C)cc1 (as salt: hydrochloride) [Compound No. 18, 3-[4-(3-tert-Butylamino-3-methylbutyl)benzoyl]-2-ethylindolizine-7-carboxylic acid ethyl(2-methyl-2H-tetrazol-5-ylmethyl)amide]	122
CCc1cc2cc(C(=O)N(CC)Cc3cc(C)on3)ccn2c1C(=O)c1ccc(CCCNC(C)(C)C)cc1 [compound 46, 3-[4-(3-tert-Butylaminopropyl)benzoyl]-2-ethylindolizine-7-carboxylic acid ethyl(5-methylisoxazol-3-ylmethyl)amide]	175
CCc1cc2cc(C(=O)O[C@H]3CNC(=O)C3)ccn2c1C(=O)c1ccc(CCCNC(C)(C)C)cc1 [compound 52, 3-[4-(3-tert-Butylaminopropyl)benzoyl]-2-ethylindolizine-7-carboxylic acid (R)-5-oxopyrrolidin-3-yl ester]	162
CCc1cc2cc(C(=O)N3CCNC(=O)CC3)ccn2c1C(=O)c1ccc(CCCNC2CCCC2)cc1 [compound 53, 1-{3-[4-(3-Cyclopentylaminopropyl)benzoyl]-2-ethylindolizine-7-carbonyl}[1,4]diazepam-5-one]	176
CCc1cc2cc(C(=O)N(CC(=O)OC)C(C)C)ccn2c1C(=O)c1ccc(CCC(C)(C)NC2CCCC2)cc1 (as salt: hydrochloride) [Compound No. 19, ({3-[4-(3-Cyclopentylamino-3-methylbutyl)benzoyl]-2-ethylindolizine-7-carbonyl}isopropylamino)acetic acid methyl ester]	245
CCN(Cc1nnn(C)n1)C(=O)c1ccn2c(C(=O)c3ccc(CCCNC(C)(C)C)cc3)c(C)cc2c1 [compound 78, 3-[4-(3-tert-Butylaminopropyl)benzoyl]-2-methylindolizine-7-carboxylic acid ethyl(2-methyl-2H-tetrazol-5-ylmethyl)amide]	153
CCN(Cc1nnn(C)n1)C(=O)c1ccn2c(C(=O)c3ccc(CCCNC(C)(C)C)cc3)c(C3CCC3)cc2c1 [compound 42, 3-[4-(3-tert-Butylaminopropyl)benzoyl]-2-cyclobutylindolizine-7-carboxylic acid ethyl(2-methyl-2H-tetrazol-5-ylmethyl)amide]	195
CCc1cc2cc(C(=O)N(CC)Cc3cnn(C)c3)ccn2c1C(=O)c1ccc(CCCNC(C)(C)C)cc1 [compound 45, 3-[4-(3-tert-Butylaminopropyl)benzoyl]-2-ethylindolizine-7-carboxylic acid ethyl(1-methyl-1H-pyrazol-4-ylmethyl)amide]	173
CCc1cc2cc(C(=O)N(CC)Cc3nnn(C)n3)ccn2c1C(=O)c1ccc(CCCNC(C)(C)C)cc1 (as salt: hydrochloride) [Compound No. 17, 3-[4-(3-tert-Butylaminopropyl)benzoyl]-2-ethylindolizine-7-carboxylic acid ethyl(2-methyl-2H-tetrazol-5-ylmethyl)amide]	172
CCCCc1cc2cc(C(=O)N(CC)CC)ccn2c1C(=O)c1ccc(C2CCNCC2)cc1 [compound 66, 2-Butyl-3-(4-piperidin-4-yl-benzoyl) indolizine-7-carboxylic acid diethylamide]	149.6
CCc1cc2cc(C(=O)N(CC)Cc3ccn(C)n3)ccn2c1C(=O)c1ccc(CCCNC(C)(C)C)cc1 [compound 44, 3-[4-(3-tert-Butylaminopropyl)benzoyl]-2-ethylindolizine-7-carboxylic acid ethyl(1-methyl-1H-pyrazol-3-ylmethyl)amide]	149
CCc1cc2cc(C(=O)OCc3nnn(C)n3)ccn2c1C(=O)c1ccc(CCCNC(C)(C)C)cc1 [compound 49, 3-[4-(3-tert-Butylaminopropyl)benzoyl]-2-ethylindolizine-7-carboxylic acid 2-methyl-2H-tetrazol-5-ylmethyl ester]	203

Source: patent publication US20130245006A1, “NOVEL INDOLIZINE DERIVATIVES, AND PREPARATION AND THERAPEUTIC USE THEREOF” (SANOFI, priority 2010, published 2013)
